# Experiments:
# Assay type in all cases: cell-based
# H7TMB56 [1] = molecular target: T1, H7TMB56 (Homo sapiens, UniProt Q96LA9); experiment: activation (phosphorylation) of p44/42 MAP kinase in H7TMB56 expression CHO cells versus mock cells, western blotting; conditions: 0.1 μM, 0, 5, 10 minutes, FIG. 14
# T1 construct: expressed in transfected cells
# Experimental: H7TMB56 expression CHO cells and mock cells were plated on a 6-well plate in 3×10^5 cells/well, followed by incubation overnight. In order to make serum free, the medium was replaced by nucleic acid-free α-MEM medium supplemented with 0.1% BSA and incubation was further continued overnight. Immediately before the assay, pre-incubation was again carried out for 2 hours. After 0.1 μM of farnesyl pyrophosphate was added to the medium to initiate the treatment, the medium was removed by suction at regular time intervals and then a sample buffer for SDS-PAGE was added to terminate the reaction. SDS-PAGE was performed in a conventional manner to transfer the protein onto a nitrocellulose filter. Thereafter, phosphorylated p44/42 MAP kinase was detected following the instructions described in the manual of PhosphoPlus p44/42 MAPK (Thr202/Tyr204) Antibody Kit (Cell Signaling, Inc.).
# H7TMB56 [2] = molecular target: T1, H7TMB56; experiment: intracellular cAMP production promoting activity in CHO cells stably expressing H7TMB56 (clone 22) versus mock cells; conditions: for intracellular cAMP production promoting activity, dose dependency: CHO cell clone highly expressing H7TMB56, FIG. 13; for agonist activity to H7TMB56 (cAMP production), specificity and dose dependency: CHO clone 22 versus mock cells, FIGS. 8 and 9; for cAMP production promoting activity (specific agonist activity): dose of 10 μM, H7TMB56 CHO cells (FIG. 10) versus mock cells (FIG. 11)
# Experimental: The same expression vector as used in EXAMPLE 1 was transfected to CHO dhfr^− cells using Gene Transfer (Wako Pure Chemical Industries, Ltd.), which was cultured in nucleic acid-free medium to select transformants. […] The intracellular cAMP level was assayed using cAMP Screen Kit (Applied Biosystems, Inc.). […] Furthermore, the cAMP production promoting activities on H7TMB56 (FIG. 10) and mock cells (FIG. 11) were assayed with respect to various isoprenoid-related substances in a dose of 10 μM (1: isopentenyl pyrophosphate, 2: dimethylallyl pyrophosphate, 3: geranyl pyrophosphate, 4: farnesyl pyrophosphate, 5: geranylgeranyl pyrophosphate, 6: geraniol, 7: farnesol, 8: geranylgeraniol, 9: trans, trans-farnesol, 10: trans, trans-farnesyl bromide, 11: geranyl acetone, 12: geranyl acetate, 13: geranylamine and 14: geranyl chloride). As a result, the agonist activity specific to geranyl pyrophosphate was detected as well, in addition to farnesyl pyrophosphate and geranylgeranyl pyrophosphate (FIG. 10).
# In a manner similar to EXAMPLE 2, the intracellular cAMP production promoting activity was assayed on 5 isoprenoid-related substances.
# H7TMB56 [3] = molecular target: T1, H7TMB56; experiment: internalization of H7TMB56-GFP fused protein in CHO cells, confocal microscope; conditions: 10^−6 M added to the medium
# Source text: An expression plasmid was constructed to express a fused protein of Green Fluorescent Protein (GFP) cDNA isolated from jelly fish Auquorea victoria, fused to H7TMB56 at the C-terminus to fit the translation frame. In this case, a fragment excised out of GFP expression vector pQBI25 (Takara Shuzo Co., Ltd.) was used as GFP cDNA. In H7TMB56, its termination codon was modified by PCR to recognition sequence with restriction enzyme NheI, and the GFP fragment was ligated thereto, which was inserted into the expression vector pAKKO-111H described in EXAMPLE 1. The thus obtained plasmid of the H7TMB56 and GFP -fused protein expression vector was transfected to CHO cells by the following procedure. CHO cells were suspended in a growth medium [DMEM (Dulbecco's Modified Eagle Medium) (GIBCO BRL, Inc.) supplemented with 10% fetal bovine serum, and plated on a Lab-Tekii cover glass chamber with 4 chambers (Nalgen Nunc, Inc.) in a concentration of 0.6×10^5 cells/chamber. After incubation overnight at 37° C. in 5% CO2, transfection was performed. For transfection, Lipofectamine™ 2000 Reagent (GIBCO BRL, Inc., Inc.) was used. First, 2 μl of Lipofectamine™ 2000 Reagent was mixed with 50 μl of OPTI-MEM-I (GIBCO BRL, Inc.). […]
# H7TMB56 [4] = molecular target: T1, H7TMB56; experiment: CRE promoter luciferase reporter gene assay in HEK293 cells transiently expressing H7TMB56; conditions: HEK293 cells bearing the H7TMB56 gene (SEQ ID NO: 2) versus other receptor control; 2×10^−4 to 10^−5 M; 4 hours; FIGS. 5 to 7
# Source text: The H7TMB56-specific stimulating activity by the isoprenoid-related substances was detected using as an indicator the expression level of reporter gene product (luciferase) produced by expression induction of CRE promoter.
# HEK293 cells were suspended in growth medium (DMEM (Dulbecco's Modified Eagle Medium) (Gibco BRL) supplemented with 10% fetal bovine serum (Gibco BRL)) and plated on a 96-well plate of black well (Beckton-Dickinson, Inc.) coated with collagen in 1×10^5 cells/well. […]
# The transfected HEK293 cells were washed with an assay buffer (DMEM supplemented with 0.1 % bovine serum albumin), and commercially available compounds containing farnesyl pyrophosphate (Sigma) and geranylgeranyl pyrophosphate (Sigma) diluted with the assay buffer were added to the cells, respectively, in 2×10^−4 to 10^−5 M, followed by incubation at 37° C. for 4 hours in 5% CO2. After the supernatant was discarded, 50 μl of PicaGene LT2.0 (Toyo Ink Mfg. Co., Ltd.) was added as a substrate for assaying the luciferase activity and a luminescence level of the luciferase was measured on a plate reader (ARVO sx Multi-Label Counter, Wallac, Inc.).
# T1 sequence (Q96LA9 whole entry): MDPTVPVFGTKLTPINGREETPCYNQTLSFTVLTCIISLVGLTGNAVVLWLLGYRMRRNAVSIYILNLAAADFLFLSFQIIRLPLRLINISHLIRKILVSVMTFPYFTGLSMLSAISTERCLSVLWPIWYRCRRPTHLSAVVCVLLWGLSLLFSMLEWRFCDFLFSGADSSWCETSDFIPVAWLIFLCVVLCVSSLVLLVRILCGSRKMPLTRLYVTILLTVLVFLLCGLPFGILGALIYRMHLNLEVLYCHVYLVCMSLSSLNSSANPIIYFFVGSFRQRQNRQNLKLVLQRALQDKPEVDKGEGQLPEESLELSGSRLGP
Compound,phosphorylation of p44/42 MAP kinase (H7TMB56 [1]),"intracellular cAMP production promoting activity, dose dependency (H7TMB56 [2])","agonist activity to H7TMB56 (cAMP production), specificity and dose dependency (H7TMB56 [2])",cAMP production promoting activity (specific agonist activity) (H7TMB56 [2]),internalization of H7TMB56-GFP from cell membrane to cytoplasm (H7TMB56 [3]),luciferase activity (expression level of reporter gene product by CRE promoter) (H7TMB56 [4])
CC(C)=CCC/C(C)=C/CC/C(C)=C/COP(=O)(O)OP(=O)(O)O [farnesyl pyrophosphate],phosphorylation of MAP kinase was detected,promoted the production of cAMP dose-dependently,confirmed the specificity in the agonist activities,detected,internalization occurred,increased
CC(C)=CCC/C(C)=C/COP(=O)(O)OP(=O)(O)O [geranyl pyrophosphate],,promoted the production of cAMP dose-dependently,,detected,,
CC(C)=CCC/C(C)=C/CC/C(C)=C/CC/C(C)=C/COP(=O)(O)OP(=O)(O)O [geranylgeranyl pyrophosphate],,promoted the production of cAMP dose-dependently,confirmed the specificity in the agonist activities,detected,,increased

# From patent US20040248209A1, “Use of g protein-coupled receptor protein” (priority 2001, published 2004)
